How the values were obtained:
Type in all cases: biochemical
[1] = biological target: ProfilerPro Kinase Selectivity Assay Kit kinases (Homo sapiens, UniProt P49841); details: GSK3 beta; 1 μM compound concentration
[2] = biological target: ProfilerPro Kinase Selectivity Assay Kit kinases (Homo sapiens, UniProt P07948); details: LYN; 1 μM compound concentration
[3] = biological target: ProfilerPro Kinase Selectivity Assay Kit kinases (Homo sapiens, UniProt Q9BZL6); details: PKD2; 1 μM compound concentration
[4] = biological target: ProfilerPro Kinase Selectivity Assay Kit kinases (Homo sapiens, UniProt O75582); details: MSK1; 1 μM compound concentration
[5] = biological target: ProfilerPro Kinase Selectivity Assay Kit kinases (Homo sapiens, UniProt P31749); details: AKT1; 1 μM compound concentration
[6] = biological target: ProfilerPro Kinase Selectivity Assay Kit kinases (Homo sapiens, UniProt Q9P0L2); details: MARK1; 1 μM compound concentration
[7] = biological target: ProfilerPro Kinase Selectivity Assay Kit kinases (Homo sapiens, UniProt P00519); details: ABL; 1 μM compound concentration
[8] = biological target: ProfilerPro Kinase Selectivity Assay Kit kinases (Homo sapiens, UniProt P43405); details: SYK; 1 μM compound concentration
[9] = biological target: ProfilerPro Kinase Selectivity Assay Kit kinases (Homo sapiens, UniProt Q8IW41); details: PRAK; 1 μM compound concentration
[10] = biological target: ProfilerPro Kinase Selectivity Assay Kit kinases (Homo sapiens, UniProt P06241); details: FYN; 1 μM compound concentration
[11] = biological target: ProfilerPro Kinase Selectivity Assay Kit kinases (Homo sapiens, UniProt Q13177); details: PAK2; 1 μM compound concentration
Sequence of ProfilerPro Kinase Selectivity Assay Kit kinases (Homo sapiens, UniProt Q13177) (Q13177 2-524 limits assumed): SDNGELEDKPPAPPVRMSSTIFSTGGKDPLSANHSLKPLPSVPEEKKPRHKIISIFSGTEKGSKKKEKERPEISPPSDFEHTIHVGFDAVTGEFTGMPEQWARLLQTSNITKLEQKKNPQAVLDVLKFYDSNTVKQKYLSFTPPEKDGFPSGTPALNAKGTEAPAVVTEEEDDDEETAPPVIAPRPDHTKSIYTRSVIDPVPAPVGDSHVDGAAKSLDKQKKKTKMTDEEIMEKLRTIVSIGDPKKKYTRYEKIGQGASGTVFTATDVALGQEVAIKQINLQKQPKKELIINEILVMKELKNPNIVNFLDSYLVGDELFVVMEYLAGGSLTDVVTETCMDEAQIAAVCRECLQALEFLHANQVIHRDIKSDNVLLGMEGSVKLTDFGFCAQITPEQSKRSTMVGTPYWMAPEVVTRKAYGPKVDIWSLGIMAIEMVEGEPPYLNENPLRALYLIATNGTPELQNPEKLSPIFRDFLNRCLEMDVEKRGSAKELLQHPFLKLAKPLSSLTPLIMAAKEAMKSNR

[12] = biological target: ProfilerPro Kinase Selectivity Assay Kit kinases (Homo sapiens, UniProt O75116); details: ROCK2; 1 μM compound concentration
[13] = biological target: ProfilerPro Kinase Selectivity Assay Kit kinases (Homo sapiens, UniProt Q13188); details: MST2; 1 μM compound concentration
[14] = biological target: ProfilerPro Kinase Selectivity Assay Kit kinases (Homo sapiens, UniProt O96017); details: CHK2; 1 μM compound concentration
[15] = biological target: ProfilerPro Kinase Selectivity Assay Kit kinases (Homo sapiens, UniProt O95819); details: HGK; 1 μM compound concentration
Sequence of ProfilerPro Kinase Selectivity Assay Kit kinases (Homo sapiens, UniProt O95819) (O95819 2-1239 limits assumed): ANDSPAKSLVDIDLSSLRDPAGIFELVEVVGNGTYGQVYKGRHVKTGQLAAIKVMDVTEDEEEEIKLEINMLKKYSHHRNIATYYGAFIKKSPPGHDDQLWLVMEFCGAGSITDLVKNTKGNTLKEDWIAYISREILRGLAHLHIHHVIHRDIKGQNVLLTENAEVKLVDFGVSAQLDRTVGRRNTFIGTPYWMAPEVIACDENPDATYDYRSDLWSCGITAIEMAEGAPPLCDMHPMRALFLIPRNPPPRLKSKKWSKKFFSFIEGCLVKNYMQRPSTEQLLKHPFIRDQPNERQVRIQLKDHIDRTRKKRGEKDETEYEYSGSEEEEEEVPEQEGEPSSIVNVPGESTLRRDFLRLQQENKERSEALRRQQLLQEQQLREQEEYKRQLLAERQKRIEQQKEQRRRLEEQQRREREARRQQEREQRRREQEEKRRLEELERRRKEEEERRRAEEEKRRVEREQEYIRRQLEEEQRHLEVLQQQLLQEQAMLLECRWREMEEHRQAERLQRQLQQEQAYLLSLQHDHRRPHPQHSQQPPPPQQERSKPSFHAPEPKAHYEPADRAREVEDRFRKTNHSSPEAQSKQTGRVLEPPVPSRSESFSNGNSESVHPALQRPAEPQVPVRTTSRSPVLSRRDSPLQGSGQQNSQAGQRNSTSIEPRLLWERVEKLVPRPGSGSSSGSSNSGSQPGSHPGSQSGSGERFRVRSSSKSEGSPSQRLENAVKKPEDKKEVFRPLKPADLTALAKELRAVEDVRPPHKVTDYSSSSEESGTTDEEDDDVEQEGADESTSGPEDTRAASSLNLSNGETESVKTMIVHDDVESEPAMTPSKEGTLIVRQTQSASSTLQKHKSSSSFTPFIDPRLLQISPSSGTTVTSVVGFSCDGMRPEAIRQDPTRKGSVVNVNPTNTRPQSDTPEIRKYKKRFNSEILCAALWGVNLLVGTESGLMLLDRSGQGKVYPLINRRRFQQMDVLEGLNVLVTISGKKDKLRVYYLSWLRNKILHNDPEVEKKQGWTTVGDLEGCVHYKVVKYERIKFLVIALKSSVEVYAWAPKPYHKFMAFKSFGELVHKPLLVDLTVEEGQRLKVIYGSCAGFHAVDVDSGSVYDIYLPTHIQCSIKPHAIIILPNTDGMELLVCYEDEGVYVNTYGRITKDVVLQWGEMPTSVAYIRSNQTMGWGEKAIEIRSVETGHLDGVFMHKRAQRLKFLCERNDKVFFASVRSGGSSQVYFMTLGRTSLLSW

[16] = biological target: ProfilerPro Kinase Selectivity Assay Kit kinases (Homo sapiens, UniProt P35968); details: KDR; 1 μM compound concentration
Sequence of ProfilerPro Kinase Selectivity Assay Kit kinases (Homo sapiens, UniProt P35968) (P35968 20-1356 limits assumed): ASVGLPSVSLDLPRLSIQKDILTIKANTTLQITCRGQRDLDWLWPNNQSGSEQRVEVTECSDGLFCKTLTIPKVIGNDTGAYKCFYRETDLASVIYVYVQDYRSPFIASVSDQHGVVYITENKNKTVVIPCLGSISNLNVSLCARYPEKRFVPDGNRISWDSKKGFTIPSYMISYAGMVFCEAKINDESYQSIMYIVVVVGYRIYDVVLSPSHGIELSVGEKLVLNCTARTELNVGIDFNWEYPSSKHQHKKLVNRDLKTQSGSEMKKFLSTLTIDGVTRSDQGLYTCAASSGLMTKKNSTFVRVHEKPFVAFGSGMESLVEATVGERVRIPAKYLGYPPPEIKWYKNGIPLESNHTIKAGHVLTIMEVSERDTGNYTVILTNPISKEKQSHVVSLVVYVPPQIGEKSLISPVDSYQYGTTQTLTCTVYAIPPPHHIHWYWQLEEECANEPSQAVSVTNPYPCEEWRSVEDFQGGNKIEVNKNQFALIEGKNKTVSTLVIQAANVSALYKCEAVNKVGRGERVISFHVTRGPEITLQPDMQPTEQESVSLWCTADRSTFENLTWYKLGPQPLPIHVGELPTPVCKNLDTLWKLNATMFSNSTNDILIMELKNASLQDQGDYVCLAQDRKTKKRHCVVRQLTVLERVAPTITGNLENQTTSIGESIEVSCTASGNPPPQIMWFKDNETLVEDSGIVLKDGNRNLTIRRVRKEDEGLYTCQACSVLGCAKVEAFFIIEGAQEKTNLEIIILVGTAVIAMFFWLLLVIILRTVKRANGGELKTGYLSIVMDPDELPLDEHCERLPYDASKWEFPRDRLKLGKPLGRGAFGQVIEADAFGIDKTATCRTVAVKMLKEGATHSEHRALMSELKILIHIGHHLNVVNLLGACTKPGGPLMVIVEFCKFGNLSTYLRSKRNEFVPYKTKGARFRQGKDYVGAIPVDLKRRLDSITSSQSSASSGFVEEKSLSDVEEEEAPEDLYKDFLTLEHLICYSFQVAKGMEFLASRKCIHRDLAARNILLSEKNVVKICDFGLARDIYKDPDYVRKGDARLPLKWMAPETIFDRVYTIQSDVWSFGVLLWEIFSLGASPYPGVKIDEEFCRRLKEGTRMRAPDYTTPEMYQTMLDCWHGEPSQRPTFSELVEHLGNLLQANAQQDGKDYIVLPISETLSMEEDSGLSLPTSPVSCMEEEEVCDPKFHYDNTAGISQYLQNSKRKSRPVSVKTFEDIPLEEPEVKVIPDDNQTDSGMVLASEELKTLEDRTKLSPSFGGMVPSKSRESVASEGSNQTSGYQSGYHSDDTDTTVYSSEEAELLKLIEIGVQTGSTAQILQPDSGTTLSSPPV

[17] = biological target: ProfilerPro Kinase Selectivity Assay Kit kinases (Homo sapiens, UniProt Q06187); details: BTK; 1 μM compound concentration
[18] = biological target: ProfilerPro Kinase Selectivity Assay Kit kinases (Homo sapiens, UniProt P04049); details: cRAF; 1 μM compound concentration
[19] = biological target: ProfilerPro Kinase Selectivity Assay Kit kinases (Homo sapiens, UniProt Q16539); details: p38 alpha; 1 μM compound concentration
[20] = biological target: ProfilerPro Kinase Selectivity Assay Kit kinases (Homo sapiens, UniProt O00141); details: SGK1; 1 μM compound concentration
[21] = biological target: ProfilerPro Kinase Selectivity Assay Kit kinases (Homo sapiens, UniProt P08581); details: cMET; 1 μM compound concentration
Sequence of ProfilerPro Kinase Selectivity Assay Kit kinases (Homo sapiens, UniProt P08581) (P08581 25-1390 limits assumed): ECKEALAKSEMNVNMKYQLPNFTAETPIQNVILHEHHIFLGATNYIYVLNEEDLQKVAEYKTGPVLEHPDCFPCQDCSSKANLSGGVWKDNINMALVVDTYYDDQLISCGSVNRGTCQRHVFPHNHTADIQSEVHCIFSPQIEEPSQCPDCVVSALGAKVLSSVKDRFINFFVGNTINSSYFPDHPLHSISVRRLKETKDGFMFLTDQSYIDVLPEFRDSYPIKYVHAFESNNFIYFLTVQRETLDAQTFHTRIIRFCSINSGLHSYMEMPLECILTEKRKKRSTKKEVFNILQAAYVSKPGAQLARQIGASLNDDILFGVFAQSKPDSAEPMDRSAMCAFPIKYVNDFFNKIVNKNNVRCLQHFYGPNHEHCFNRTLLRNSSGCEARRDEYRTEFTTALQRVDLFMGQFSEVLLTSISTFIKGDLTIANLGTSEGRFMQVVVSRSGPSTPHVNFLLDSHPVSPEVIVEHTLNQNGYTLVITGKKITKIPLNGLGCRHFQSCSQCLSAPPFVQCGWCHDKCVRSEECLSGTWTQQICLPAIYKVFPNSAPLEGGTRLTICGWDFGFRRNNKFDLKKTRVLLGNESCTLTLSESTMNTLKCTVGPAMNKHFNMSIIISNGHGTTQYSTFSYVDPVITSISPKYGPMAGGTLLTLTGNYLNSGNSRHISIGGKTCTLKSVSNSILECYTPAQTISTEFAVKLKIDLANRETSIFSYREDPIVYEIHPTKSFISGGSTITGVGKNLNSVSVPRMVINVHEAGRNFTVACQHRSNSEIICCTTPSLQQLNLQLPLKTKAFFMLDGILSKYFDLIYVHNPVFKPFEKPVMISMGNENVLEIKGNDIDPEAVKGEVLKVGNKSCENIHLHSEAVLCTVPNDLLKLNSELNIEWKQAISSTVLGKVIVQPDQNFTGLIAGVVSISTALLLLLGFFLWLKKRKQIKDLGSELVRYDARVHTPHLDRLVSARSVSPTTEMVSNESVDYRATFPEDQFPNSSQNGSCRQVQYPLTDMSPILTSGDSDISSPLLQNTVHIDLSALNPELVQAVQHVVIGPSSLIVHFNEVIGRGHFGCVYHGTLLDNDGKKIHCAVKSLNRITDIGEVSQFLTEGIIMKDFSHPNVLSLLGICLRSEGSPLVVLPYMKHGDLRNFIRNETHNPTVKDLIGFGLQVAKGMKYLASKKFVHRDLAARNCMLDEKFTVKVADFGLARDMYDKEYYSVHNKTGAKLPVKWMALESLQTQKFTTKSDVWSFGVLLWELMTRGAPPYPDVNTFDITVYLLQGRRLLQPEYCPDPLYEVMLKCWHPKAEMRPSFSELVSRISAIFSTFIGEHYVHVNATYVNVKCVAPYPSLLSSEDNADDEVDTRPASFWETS

[22] = biological target: ProfilerPro Kinase Selectivity Assay Kit kinases (Homo sapiens, UniProt P28482); details: ERK2; 1 μM compound concentration
Sequence of ProfilerPro Kinase Selectivity Assay Kit kinases (Homo sapiens, UniProt P28482) (P28482 2-360 limits assumed): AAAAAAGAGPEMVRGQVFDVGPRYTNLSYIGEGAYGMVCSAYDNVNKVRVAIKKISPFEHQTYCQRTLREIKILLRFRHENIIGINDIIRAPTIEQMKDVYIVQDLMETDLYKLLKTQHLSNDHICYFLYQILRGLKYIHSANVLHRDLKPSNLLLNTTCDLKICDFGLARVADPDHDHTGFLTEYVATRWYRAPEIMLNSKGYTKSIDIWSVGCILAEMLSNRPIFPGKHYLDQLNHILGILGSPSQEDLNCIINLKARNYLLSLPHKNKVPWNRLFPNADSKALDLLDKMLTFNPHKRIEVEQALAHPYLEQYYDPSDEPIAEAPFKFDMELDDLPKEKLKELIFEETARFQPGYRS

[23] = biological target: ProfilerPro Kinase Selectivity Assay Kit kinases (Homo sapiens, UniProt P48730); details: CK1 delta; 1 μM compound concentration
[24] = biological target: ProfilerPro Kinase Selectivity Assay Kit kinases (Homo sapiens, UniProt P27361); details: ERK1; 1 μM compound concentration
[25] = biological target: ProfilerPro Kinase Selectivity Assay Kit kinases (Homo sapiens, UniProt P49137); details: MAPKAPK2; 1 μM compound concentration
[26] = biological target: ProfilerPro Kinase Selectivity Assay Kit kinases (Homo sapiens, UniProt P06239); details: LCK; 1 μM compound concentration
[27] = biological target: ProfilerPro Kinase Selectivity Assay Kit kinases (Homo sapiens, UniProt O14757); details: CHK1; 1 μM compound concentration
[28] = biological target: ProfilerPro Kinase Selectivity Assay Kit kinases (Homo sapiens, UniProt P17612); details: PKA alpha; 1 μM compound concentration
[29] = biological target: ProfilerPro Kinase Selectivity Assay Kit kinases (Homo sapiens, UniProt P08069); details: IGF1R; 1 μM compound concentration
[30] = biological target: ProfilerPro Kinase Selectivity Assay Kit kinases (Homo sapiens, UniProt Q16566); details: CAMK4; 1 μM compound concentration
[31] = biological target: ProfilerPro Kinase Selectivity Assay Kit kinases (Homo sapiens, UniProt P31751); details: AKT2; 1 μM compound concentration

POC (Percent of control) GSK3 beta [1]	POC (Percent of control) LYN [2]	POC (Percent of control) PKD2 [3]	POC (Percent of control) MSK1 [4]	POC (Percent of control) AKT1 [5]	POC (Percent of control) MARK1 [6]	POC (Percent of control) ABL [7]	POC (Percent of control) SYK [8]	POC (Percent of control) PRAK [9]	POC (Percent of control) FYN [10]	POC (Percent of control) PAK2 [11]	POC (Percent of control) ROCK2 [12]	POC (Percent of control) MST2 [13]	POC (Percent of control) CHK2 [14]	POC (Percent of control) HGK [15]	POC (Percent of control) KDR [16]	POC (Percent of control) BTK [17]	POC (Percent of control) cRAF [18]	POC (Percent of control) p38 alpha [19]	POC (Percent of control) SGK1 [20]	SMILES	also measured
96 POC	101 POC	104 POC	112 POC	103 POC	97 POC	97 POC	110 POC	97 POC	96 POC	96 POC	101 POC	101 POC	101 POC	99 POC	105 POC	100 POC	108 POC	104 POC	102 POC	Cc1nc(N)nc(-c2cccnc2Nc2cccc(O)c2)n1 [Example 23, 3-(3-(4-Amino-6-Methyl-1,3,5-Triazin-2-yl)Pyridin-2-Ylamino)Phenol]	POC (Percent of control) cMET [21]: 104 POC; POC (Percent of control) ERK2 [22]: 103 POC; POC (Percent of control) CK1 delta [23]: 70 POC; POC (Percent of control) ERK1 [24]: 104 POC; POC (Percent of control) MAPKAPK2 [25]: 99 POC; POC (Percent of control) LCK [26]: 97 POC; POC (Percent of control) CHK1 [27]: 105 POC; POC (Percent of control) PKA alpha [28]: 99 POC; POC (Percent of control) IGF1R [29]: 101 POC; POC (Percent of control) CAMK4 [30]: 98 POC; POC (Percent of control) AKT2 [31]: 112 POC
80 POC	91 POC	102 POC	94 POC	98 POC	102 POC	104 POC	83 POC	98 POC	98 POC	99 POC	95 POC	84 POC	97 POC	91 POC	81 POC	99 POC	95 POC	104 POC	85 POC	Cc1nc(N)cc(-c2cccnc2Nc2cccc3[nH]ncc23)n1 [Example 27, N-(3-(6-Amino-2-Methylpyrimidin-4-yl)Pyridin-2-yl)-1H-Indazol-4-Amine]	POC (Percent of control) cMET [21]: 95 POC; POC (Percent of control) ERK2 [22]: 97 POC; POC (Percent of control) CK1 delta [23]: 43 POC; POC (Percent of control) ERK1 [24]: 100 POC; POC (Percent of control) MAPKAPK2 [25]: 101 POC; POC (Percent of control) LCK [26]: 101 POC; POC (Percent of control) CHK1 [27]: 103 POC; POC (Percent of control) PKA alpha [28]: 84 POC; POC (Percent of control) IGF1R [29]: 41 POC; POC (Percent of control) CAMK4 [30]: 56 POC; POC (Percent of control) AKT2 [31]: 95 POC
104 POC	100 POC	98 POC	90 POC	102 POC	98 POC	98 POC	106 POC	112 POC	97 POC	105 POC	98 POC	98 POC	106 POC	96 POC	102 POC	97 POC	95 POC	99 POC	93 POC	Cc1nc(N)nc(-c2cc(CN3CCN(S(C)(=O)=O)CC3)cnc2Nc2cccc(O)c2)n1 [Example 30, 3-(3-(4-Amino-6-Methyl-1,3,5-Triazin-2-yl)-5-((4-(Methyl Sulfonyl)Piperazin-1-yl)Methyl)Pyridin-2-Ylamino)Phenol]	POC (Percent of control) cMET [21]: 101 POC; POC (Percent of control) ERK2 [22]: 102 POC; POC (Percent of control) CK1 delta [23]: 95 POC; POC (Percent of control) ERK1 [24]: 93 POC; POC (Percent of control) MAPKAPK2 [25]: 103 POC; POC (Percent of control) LCK [26]: 102 POC; POC (Percent of control) CHK1 [27]: 96 POC; POC (Percent of control) PKA alpha [28]: 100 POC; POC (Percent of control) IGF1R [29]: 80 POC; POC (Percent of control) CAMK4 [30]: 94 POC; POC (Percent of control) AKT2 [31]: 105 POC
95 POC	96 POC	106 POC	103 POC	93 POC	102 POC	97 POC	104 POC	111 POC	101 POC	95 POC	94 POC	96 POC	101 POC	104 POC	90 POC	98 POC	91 POC	96 POC	89 POC	Cc1cnc(Nc2cccc3[nH]ccc23)c(-c2nc(C)nc(N)n2)c1 [Example 46, N-(3-(4-Amino-6-Methyl-1,3,5-Triazin-2-yl)-5-Methylpyridin-2-yl)-1H-Indol-4-Amine]	POC (Percent of control) cMET [21]: 104 POC; POC (Percent of control) ERK2 [22]: 116 POC; POC (Percent of control) CK1 delta [23]: 91 POC; POC (Percent of control) ERK1 [24]: 92 POC; POC (Percent of control) MAPKAPK2 [25]: 98 POC; POC (Percent of control) LCK [26]: 96 POC; POC (Percent of control) CHK1 [27]: 98 POC; POC (Percent of control) PKA alpha [28]: 102 POC; POC (Percent of control) IGF1R [29]: 78 POC; POC (Percent of control) CAMK4 [30]: 96 POC; POC (Percent of control) AKT2 [31]: 110 POC

— patent US8772480B2, “Inhibitors of PI3 kinase and/or mTOR” (priority 2009, dated 2014)
